Source: patent US20090010902A1 (priority 2007, published 2009)

Columns and labels:
TLR4 protein = conditions: summary statement; no method described
[1] = system: TLR4 mRNA in human intestinal tract epithelial cell strain HT-29; assay type: cell-based

CCCC(=O)O [butyric acid]
expression amount of TLR4 protein (result in words) (TLR4 protein): reduced | TLR4 mRNA expression (result in words) [1]: similarly reduced
